The source of these data is patent publication US11866433B2, “Diarylthiohydantoin compound as androgen receptor antagonist” (CHIA TAI TIANQING PHARMACEUTICAL GROUP CO., LTD., priority 2017, dated 2024).

SMILES strings stand for the structures.

A word on the TGI: it is the reduction of tumour growth relative to the control group. A lower TGI goes with little slowing of growth. The IC50 is the concentration needed to halve the response being measured. A higher IC50 goes with weaker potency in that assay.

The test system of one series is Human prostate cancer LNCaP-FGC cells. The series is described as follows: In vivo pharmacodynamic study on subcutaneous xenograft tumor model of human prostate cancer LNCaP-FGC cells. On the set-up: species or system CB-17 SCID mice. The settings on record: 50 mg/kg PO QD, after 21 days of administration, vs solvent control. The protocol:
2.1 Experimental Animals • Species: Mice • Strain: CB-17 SCID mice • Week age and body weight: 6-8 weeks old, 18-22 g body weight • Gender: male • Supplier: Beijing Vital River Laboratory Animal Technology Co., Ltd • Animal Certificate No.: 11400700184227 3. Experimental Method and Steps 3.1 Cell Culture
Human prostate cancer LNCaP-FGC cells (ATCC, Manassas, Virginia) were cultured in vitro monolayers under the culture conditions of RPM11640 medium supplemented with […] fetal bovine serum at 37° C. with 5% CO2. Routine digestion treatment with trypsin-EDTA was performed twice a week for passage. When the cell saturation was 80%-90%, the cells were collected, counted, and inoculated.
0.2 mL (10×10^6) of LNCaP-FGC cells (10×10^6+Matrigel, 1:1) was inoculated subcutaneously to the right back of each CB-17 SCID mouse. When the average tumor volume reached 100-150 mm^3, administration in groups was started.
The tumor diameters were measured with a vernier caliper twice a week. The calculation formula of the tumor volume is: V=0.5a×b^2, wherein a and b represent the long diameter and the short diameter of the tumor, respectively. The antitumor efficacy of the compounds were evaluated by TGI (%) or a relative tumor proliferation rate T/C (%). TGI(%)=[(1−(average tumor volume of a treatment group at the end of drug administration−average tumor volume of the treatment group at the beginning of drug administration))/(average tumor volume of the vehicle control group at the end of treatment−average tumor volume of the vehicle control group at the beginning of treatment)]×100%. The calculation formula of the relative tumor proliferation rate T/C (%) is as follows: T/C %=TRTV/CRTV×100% (TRTV: RTV of a treatment group; CRTV: RTV of a negative control group). The relative tumor volume (RTV) is calculated based on the tumor measurement results, and the calculation formula is RTV=Vt/V0, wherein V0 is the average tumor volume measured at the time of administration in groups (i.e., do), Vt is the average tumor volume at one measurement, and TRTV and CRTV are the data obtained on the same day.
The statistical analysis includes mean and standard error of mean (SEM) of the tumor volume at each time point for each group. […] The comparison between two groups was analyzed by T-test, and the comparison between three or more groups was analyzed by one-way ANOVA. If there was a significant difference in the F value, the Games-Howell method was used for testing. If there was no significant difference in the F value, the Dunnet (2-sided) method was used for analysis. All data analysis was performed by using SPSS 17.0. “p<0.05” was considered a significant difference.
For the compound `CCc1nc(OCCO)c2cc(N3C(=S)N(c4ccc(C#N)c(C(F)(F)F)c4)C(=O)C3(C)C)ccc2n1` [Compound 27], the TGI is 51.0% and the “relative tumor proliferation rate T/C” value worked out at 53.1%.

System in a further series: not listed separately
The series is described as follows: Tissue distribution test of Compound 27 and Compound 10 (plasma and brain). The format is in vivo. The settings on record: intragastric 2 mg/kg, 2 h after administration, male CD-1 mice. The procedure: Taking male CD-1 mice as test animals, drug concentrations in plasma and brain after intragastric administration of Compound 27 and Compound 10 to the mice were determined by the LC/MS/MS method, respectively.
2.2 Test Animals: Six healthy adult male CD-1 mice were divided into 2 groups, with 3 mice in each group, according to the principle of similar body weight. The animals were purchased from Shanghai Super-BK Laboratory Animal Co., Ltd., with Animal Production License No.: SCXK (Shanghai) 2013-0016.
An appropriate amount of sample was weighed, and an appropriate amount of DMSO, PEG400 and water were added successively at a volume ratio of 10:40:50. After stirring and ultrasonic processing, the resulting mixture reached a clear solution state of 0.4 mg/mL.
Six male CD-1 mice were divided into 2 groups, fasted overnight, and intragastrically administered at an administration volume of 5 mL/kg in a dose of 2 mg/kg.
After Compound 27 and Compound 10 were intragastrically administered to the male CD-1 mice, 100 μL of blood was collected by cardiac puncture at 2 h, placed in a test tube containing 2 μl of EDTA-K2, and centrifuged at 3000 g for 15 min to separate 50 μL of plasma, which was stored at −60° C. Meanwhile, brain tissues were collected, washed, then homogenized with 5-fold 15 mM PBS/MeOH (v:v, 2:1), and stored at −60° C. The animals were allowed to eat 2 hours after administration.
After intragastric administration to the mice, the content of the test compound in plasma and brain was determined by the LC/MS/MS method. The linear range of the method was 2.00-6000 nmol/L; and the plasma samples were analyzed after the treatment with acetonitrile precipitated protein.
With `CCc1nc(OCCO)c2cc(N3C(=S)N(c4ccc(C#N)c(C(F)(F)F)c4)C(=O)C3(C)C)ccc2n1` [Compound 27], the “Concentration in Brain” value is on record as 85.2 ± 21.9 nmol/kg.

The same series, now with this note: mouse, brain / plasma, oral; intragastric 2 mg/kg, 2 h after administration, male CD-1 mice; read-out: Brain to Blood Ratio.
On to `CCc1nc(OCCO)c2cc(N3C(=S)N(c4ccc(C#N)c(C(F)(F)F)c4)C(=O)C3(C)C)ccc2n1` [Compound 27], for which the Kp at 2 h was found to be 0.00917 ± 0.0004.

Still in this series, the particulars now being: mouse, plasma, oral; intragastric 2 mg/kg, 2 h after administration, male CD-1 mice.
In the case of `CCc1nc(OCCO)c2cc(N3C(=S)N(c4ccc(C#N)c(C(F)(F)F)c4)C(=O)C3(C)C)ccc2n1` [Compound 27], the concentration at 2 h is 9.25 ± 2.11 µM.

A further series has as its target T1, androgen receptor (AR) (Homo sapiens, UniProt P10275).
T1 sequence (P10275 1-920): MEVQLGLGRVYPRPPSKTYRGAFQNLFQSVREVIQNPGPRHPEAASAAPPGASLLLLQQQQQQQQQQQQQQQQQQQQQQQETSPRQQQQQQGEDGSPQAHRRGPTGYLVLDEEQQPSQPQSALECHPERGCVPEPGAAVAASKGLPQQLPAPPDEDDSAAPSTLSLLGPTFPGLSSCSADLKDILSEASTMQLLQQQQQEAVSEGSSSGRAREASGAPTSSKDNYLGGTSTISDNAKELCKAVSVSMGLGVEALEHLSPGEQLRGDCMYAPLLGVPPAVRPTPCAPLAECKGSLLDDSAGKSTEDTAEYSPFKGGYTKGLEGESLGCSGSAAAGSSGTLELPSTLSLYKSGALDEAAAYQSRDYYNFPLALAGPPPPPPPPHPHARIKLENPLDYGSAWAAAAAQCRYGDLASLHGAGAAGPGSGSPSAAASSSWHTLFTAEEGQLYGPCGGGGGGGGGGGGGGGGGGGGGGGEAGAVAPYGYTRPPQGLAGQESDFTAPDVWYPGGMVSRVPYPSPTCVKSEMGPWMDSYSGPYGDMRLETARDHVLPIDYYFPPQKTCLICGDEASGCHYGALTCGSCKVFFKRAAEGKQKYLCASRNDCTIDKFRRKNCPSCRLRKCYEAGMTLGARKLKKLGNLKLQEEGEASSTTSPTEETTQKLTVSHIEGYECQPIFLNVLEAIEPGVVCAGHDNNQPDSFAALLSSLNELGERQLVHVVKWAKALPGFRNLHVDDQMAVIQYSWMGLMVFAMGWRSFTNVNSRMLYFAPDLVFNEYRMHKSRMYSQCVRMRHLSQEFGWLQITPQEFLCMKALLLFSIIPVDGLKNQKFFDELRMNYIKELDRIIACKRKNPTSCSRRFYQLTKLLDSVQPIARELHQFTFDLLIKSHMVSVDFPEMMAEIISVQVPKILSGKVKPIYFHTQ
Description: Antagonism of compounds on nuclear translocation of androgen receptor (PathHunter NHR cell lines). The class given is cell-based. Conditions: antagonist mode, agonist 6a-Fluorotestosterone 0.06 μM (EC80). The protocol: Example 75 Test of Antagonism of Compounds on Nuclear Translocation of Androgen Receptor (AR)
1. PathHunter NHR cell lines were recovered and cultured for amplification.
2. The cells were inoculated onto a 384-well plate prior to testing, and incubated at 37° C. The serum for culture was filtered with charcoal-dextran to reduce the hormone level therein.
3. In the detection of the antagonistic function, a compound was added to the cells and incubated for 60 min. The working concentration of the test compound was diluted from 10 μM at a 3-fold concentration gradient, respectively including: […]. Then, an agonist 6a-Fluorotestosterone 0.06 μM (concentration: EC80, i.e., 80% agonistic compound concentration) was added, and the mixture was incubated at 37° C. or at room temperature for 3-16 h.
4. Signal detection: 12.5 μL or 15 μL (50%, v/v) PathHunter detection mixed solution (kit: DiscoverX product catalog number: 93-0001 series) was added, and incubated at room temperature for 1 h. The chemiluminescent signal was read with a PerkinElmer Envision™ instrument.
5. Data analysis: The compound activity was analyzed with CBIS data analysis software (ChemInnovation, CA). The calculation formula of the inhibition percent of the antagonist is as follows: IC50 inhibition ratio (%)=[…]×(1−(average RLU value of the test compound−average RLU value of the blank control group)/(average RLU value of EC80 control group−average RLU value of the blank control group)).
The compound `CCc1nc(OCCO)c2cc(N3C(=S)N(c4ccc(C#N)c(C(F)(F)F)c4)C(=O)C3(C)C)ccc2n1` [Compound 27] came in with an IC50 of 2.21 µM.
Same read-out and setting: for `CCc1nc(-c2cn[nH]c2)c2cc(N3C(=S)N(c4ccc(C#N)c(C(F)(F)F)c4)C(=O)C3(C)C)cc(F)c2n1` [Compound 51] the value was 0.64 µM.
`CCc1nc(-c2cc[nH]n2)c2cc(N3C(=S)N(c4ccc(C#N)c(C(F)(F)F)c4)C(=O)C3(C)C)cc(F)c2n1` [Compound 52] showed an IC50 of 1.23 µM. This IC50 lies about 1.9-fold higher than the previous one.
The same measure, in the same setting: the value for `CCc1cc(=O)n2cc(N3C(=S)N(c4cnc(C#N)c(C(F)(F)F)c4)C(=O)C3(C)C)cc(F)c2n1` [Compound 53] was 2.11 µM; that for `CCc1cc(=O)n2cc(N3C(=S)N(c4ccc(C#N)c(C(F)(F)F)c4)C(=O)C34CCC4)cc(F)c2n1` [Compound 54] was 2.5 µM.
On the same count and under the same terms, the value for `CCOc1cc(=O)n2cc(N3C(=S)N(c4ccc(C#N)c(C(F)(F)F)c4)C(=O)C3(C)C)cc(F)c2n1` [Compound 55] was 1.4 µM; that for `CCc1nc2ccc(-n3c(=S)n(-c4ccc(C#N)c(C(F)(F)F)c4)c4nccc(C)c43)cc2c(=O)[nH]1` [Compound 56] was 2.86 µM.
Still for that read-out and setting: the value for `CCc1cc(=O)n2cc(N3C(=S)N(c4ccc(C#N)c(C(F)(F)F)c4)C(=O)C3(C)C)cc(OC)c2n1` [Compound 57] was 5.47 µM.
Compound `CCc1cc(=O)n2cc(N3C(=S)N(c4ccc(C#N)c(F)c4)C(=O)C3(C)C)cc(F)c2n1` [Compound 59] yielded an IC50 of 8.92 µM.
On to `CCc1cc(=O)n2cc(N3C(=S)N(c4ccc(C#N)c(C(F)(F)F)c4)C(=O)C3(C)C)cc(C)c2n1` [Compound 60], for which the IC50 turned out to be 1.83 µM. Compared with the last compound, the IC50 is about 4.9-fold lower.
Turning to `CCc1cc(=O)n2cc(N3C(=S)N(c4ccc(C#N)c(C(F)(F)F)c4)C(=O)C3(C)C)cc(Cl)c2n1` [Compound 61], the half-inhibitory concentration (IC50) came out at 1.45 µM.
Consider `CC1(C)C(=O)N(c2ccc(C#N)c(C(F)(F)F)c2)C(=S)N1c1cc(F)c2nc(C(F)F)cc(=O)n2c1` [Compound 62], for which the IC50 amounted to 1.69 µM.
The same measure, in the same setting: for `CCc1nc(-c2c[nH]cn2)c2cc(N3C(=S)N(c4ccc(C#N)c(C(F)(F)F)c4)C(=O)C3(C)C)cc(F)c2n1` [Compound 63] the value was 1.34 µM.
`CCOc1cc(=O)n2cc(N3C(=S)N(c4cnc(C#N)c(C(F)(F)F)c4)C(=O)C3(C)C)cc(F)c2n1` [Compound 64] returned an IC50 of 2.81 µM.
Same read-out and setting: the value for `COCCOc1cc(=O)n2cc(N3C(=S)N(c4ccc(C#N)c(C(F)(F)F)c4)C(=O)C3(C)C)cc(F)c2n1` [Compound 65] was 2.09 µM; that for `CCc1cc(=O)n2cc(-n3c(=S)n(-c4ccc(C#N)c(C(F)(F)F)c4)c4nccc(C)c43)cc(F)c2n1` [Compound 66] was 7.12 µM; that for `CC1(C)C(=O)N(c2ccc(C#N)c(C(F)(F)F)c2)C(=S)N1c1cc(F)c2nc(OCCO)cc(=O)n2c1` [Compound 67] was 2.3 µM.
`COc1cc(=O)n2cc(N3C(=S)N(c4ccc(C#N)c(C(F)(F)F)c4)C(=O)C3(C)C)cc(F)c2n1` [Compound 68] returned an IC50 of 1.91 µM.
The same measure, in the same setting: the value for `COCc1cc(=O)n2cc(N3C(=S)N(c4ccc(C#N)c(C(F)(F)F)c4)C(=O)C3(C)C)cc(F)c2n1` [Compound 69] was 4 µM; that for `CCOc1nc(OCCO)c2cc(N3C(=S)N(c4ccc(C#N)c(C(F)(F)F)c4)C(=O)C3(C)C)cc(F)c2n1` [Compound 70] was 4.27 µM.
On the same count and under the same terms, for `COc1nc(OCCO)c2cc(N3C(=S)N(c4ccc(C#N)c(C(F)(F)F)c4)C(=O)C3(C)C)cc(F)c2n1` [Compound 71] the value was 2.76 µM; for `CCOc1nc(OCCO)c2cc(N3C(=S)N(c4cnc(C#N)c(C(F)(F)F)c4)C(=O)C3(C)C)cc(F)c2n1` [Compound 72], 2.41 µM; for `COc1nc(OCCO)c2cc(N3C(=S)N(c4cnc(C#N)c(C(F)(F)F)c4)C(=O)C3(C)C)cc(F)c2n1` [Compound 73], 2.13 µM.
For `CC1(C)C(=O)N(c2cnc(C#N)c(C(F)(F)F)c2)C(=S)N1c1cc(F)c2nc(C(F)F)cc(=O)n2c1` [Compound 74], the IC50 is 2.96 µM.
`CCc1cc(=O)n2cc(N3C(=S)N(c4cnc(C#N)c(Cl)c4)C(=O)C3(C)C)cc(F)c2n1` [Compound 75] displayed an IC50 of 0.92 µM.
